Experimental data from PMC12086673, “Selective inhibition of NikA mediated Ni(II) import in E. coli by the Indium(III)-EDTA complex” (Metallomics: Integrated Biometal Science, 2025).

Molecular target: T1, NikA (Escherichia coli, UniProt P33590)
T1 construct: wild type NikA, purified from periplasm (56 304 Da)
Assay: isothermal titration calorimetry, one-site model
Type: binding

T1 sequence (P33590 23-524): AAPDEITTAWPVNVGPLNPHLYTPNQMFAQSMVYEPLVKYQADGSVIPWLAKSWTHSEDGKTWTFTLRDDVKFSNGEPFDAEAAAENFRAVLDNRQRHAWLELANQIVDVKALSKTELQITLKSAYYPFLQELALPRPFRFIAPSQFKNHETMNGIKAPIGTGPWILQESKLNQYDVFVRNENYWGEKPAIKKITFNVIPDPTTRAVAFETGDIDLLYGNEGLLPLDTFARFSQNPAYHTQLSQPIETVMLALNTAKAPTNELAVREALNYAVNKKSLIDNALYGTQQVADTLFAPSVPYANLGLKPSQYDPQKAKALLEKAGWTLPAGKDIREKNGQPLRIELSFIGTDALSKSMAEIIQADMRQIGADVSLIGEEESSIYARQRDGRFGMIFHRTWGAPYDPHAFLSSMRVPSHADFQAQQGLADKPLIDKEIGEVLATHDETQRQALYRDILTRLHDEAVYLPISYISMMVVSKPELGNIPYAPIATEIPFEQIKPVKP

Row | Compound | Kd [µM]
1 | O=C([O-])CN(CCN(CC(=O)[O-])CC(=O)O)CC(=O)[O-].[Fe+3] [Fe(III)-EDTA] | 7.4 ± 0.7
2 | O=C([O-])CN(CCN(CC(=O)[O-])CC(=O)O)CC(=O)[O-].[In+3] [In(III)-EDTA] | 17.3 ± 3
